Measured values taken from patent US10239840B2, “Benzoazepine derivatives” (ViiV HEALTHCARE UK LIMITED, priority 2015, dated 2019).

System: HIV
Assay: MT4 assay, antiviral HIV activity
Format: cell-based
Settings: MT-4 cells (HTLV-1 transformed), read-out at 96 hours with cell titer glo
Method: Antiviral HIV activity and cytotoxicity values for compounds of the invention from Table 1 were measured in parallel in the HTLV-1 transformed cell line MT-4 based on the method previously described (Hazen et al., 2007, In vitro antiviral activity of the novel, tyrosyl-based human immunodeficiency virus (HIV) type 1 protease inhibitor brecanavir (GW640385) in combination with other antiretrovirals and against a panel of protease inhibitor-resistant HIV (Hazen et al., “In vitro antiviral activity of the novel, tyrosyl-based human immunodeficiency virus (HIV) type 1 protease inhibitor brecanavir (GW640385) in combination with other antiretrovirals and against a panel of protease inhibitor-resistant HIV”, Antimicrob. Agents Chemother. 2007, 51: 3147-3154; and Pauwels et al., “Sensitive and rapid assay on MT-4 cells for the detection of antiviral compounds against the AIDS virus”, J. of Virological Methods 1987, 16: 171-185).
Luciferase activity was measured 96 hours later by adding a cell titer glo (Promega, Madison, Wis.). Percent inhibition of cell protection data was plotted relative to no compound control. Under the same condition, cytotoxicity of the compounds was determined using cell titer Glo™ (Promega, Madison, Wis.). IC50s were determined from a 10 point dose response curve using 3-4-fold serial dilution for each compound, which spans a concentration range >1000 fold.
These values are plotted against the molar compound concentrations using the standard four parameter logistic equation: y=((Vmax*x^n)/(K^n+x^n)+Y2
Y2=minimum γ n=slope factor
Vmax=maximum γ x=compound concentration [M]

For `Cc1ccc(-c2c(C)c3c(c(C)c2[C@H](OC(C)(C)C)C(=O)O)CCN(C(=O)c2cccc(F)c2)CC3)cc1` [Example 4, (S)-2-(tert-butoxy)-2-(3-(3-fluorobenzoyl)-6,9-dimethyl-8-(p-tolyl)-2,3,4,5-tetrahydro-1H-benzo[d]azepin-7-yl)acetic Acid], the IC50 was 34 nM.
